According to PMC3574212 (Journal of medicinal chemistry, 2013):
Entries after “also recorded” stand apart in the source; their conditions may differ.

What was measured:
EPAC2 [1] = target: T1, EPAC2 (Mus musculus, UniProt Q9EQZ6); assay: cAMP-mediated EPAC2 GEF activity; type: biochemical; conditions: 25 µM compound in the presence of 25 µM cAMP
T1 sequence (Q9EQZ6 1-1011): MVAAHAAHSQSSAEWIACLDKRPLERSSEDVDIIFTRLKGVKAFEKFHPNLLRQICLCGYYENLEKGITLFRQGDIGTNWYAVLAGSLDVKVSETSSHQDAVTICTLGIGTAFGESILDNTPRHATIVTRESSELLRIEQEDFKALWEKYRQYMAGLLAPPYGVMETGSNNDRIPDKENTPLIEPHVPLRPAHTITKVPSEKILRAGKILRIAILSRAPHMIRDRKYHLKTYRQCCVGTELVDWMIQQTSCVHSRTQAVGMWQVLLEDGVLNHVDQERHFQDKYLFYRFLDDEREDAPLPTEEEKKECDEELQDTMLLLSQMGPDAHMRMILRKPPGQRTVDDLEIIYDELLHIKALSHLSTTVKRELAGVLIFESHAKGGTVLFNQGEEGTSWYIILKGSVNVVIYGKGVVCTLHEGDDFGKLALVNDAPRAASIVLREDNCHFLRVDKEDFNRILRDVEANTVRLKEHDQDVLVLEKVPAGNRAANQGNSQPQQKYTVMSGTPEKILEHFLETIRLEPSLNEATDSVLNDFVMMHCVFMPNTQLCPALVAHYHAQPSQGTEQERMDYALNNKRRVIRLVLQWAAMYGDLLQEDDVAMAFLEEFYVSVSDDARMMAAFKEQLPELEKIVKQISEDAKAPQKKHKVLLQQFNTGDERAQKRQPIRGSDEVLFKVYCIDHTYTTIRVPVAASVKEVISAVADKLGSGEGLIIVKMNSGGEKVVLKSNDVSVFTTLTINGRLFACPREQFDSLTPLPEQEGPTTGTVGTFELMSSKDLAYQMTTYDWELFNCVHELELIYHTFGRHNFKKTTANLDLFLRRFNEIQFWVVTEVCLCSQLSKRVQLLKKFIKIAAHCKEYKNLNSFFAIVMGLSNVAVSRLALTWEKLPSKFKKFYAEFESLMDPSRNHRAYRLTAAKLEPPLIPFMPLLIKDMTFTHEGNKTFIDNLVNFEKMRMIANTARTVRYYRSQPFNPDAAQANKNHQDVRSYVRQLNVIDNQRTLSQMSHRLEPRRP

EPAC1 [2] = target: T2, EPAC1 (Homo sapiens, UniProt O95398); assay: cAMP-mediated EPAC1 GEF activity; type: biochemical; conditions: 25 µM compound in the presence of 25 µM cAMP
T2 sequence (O95398 1-923): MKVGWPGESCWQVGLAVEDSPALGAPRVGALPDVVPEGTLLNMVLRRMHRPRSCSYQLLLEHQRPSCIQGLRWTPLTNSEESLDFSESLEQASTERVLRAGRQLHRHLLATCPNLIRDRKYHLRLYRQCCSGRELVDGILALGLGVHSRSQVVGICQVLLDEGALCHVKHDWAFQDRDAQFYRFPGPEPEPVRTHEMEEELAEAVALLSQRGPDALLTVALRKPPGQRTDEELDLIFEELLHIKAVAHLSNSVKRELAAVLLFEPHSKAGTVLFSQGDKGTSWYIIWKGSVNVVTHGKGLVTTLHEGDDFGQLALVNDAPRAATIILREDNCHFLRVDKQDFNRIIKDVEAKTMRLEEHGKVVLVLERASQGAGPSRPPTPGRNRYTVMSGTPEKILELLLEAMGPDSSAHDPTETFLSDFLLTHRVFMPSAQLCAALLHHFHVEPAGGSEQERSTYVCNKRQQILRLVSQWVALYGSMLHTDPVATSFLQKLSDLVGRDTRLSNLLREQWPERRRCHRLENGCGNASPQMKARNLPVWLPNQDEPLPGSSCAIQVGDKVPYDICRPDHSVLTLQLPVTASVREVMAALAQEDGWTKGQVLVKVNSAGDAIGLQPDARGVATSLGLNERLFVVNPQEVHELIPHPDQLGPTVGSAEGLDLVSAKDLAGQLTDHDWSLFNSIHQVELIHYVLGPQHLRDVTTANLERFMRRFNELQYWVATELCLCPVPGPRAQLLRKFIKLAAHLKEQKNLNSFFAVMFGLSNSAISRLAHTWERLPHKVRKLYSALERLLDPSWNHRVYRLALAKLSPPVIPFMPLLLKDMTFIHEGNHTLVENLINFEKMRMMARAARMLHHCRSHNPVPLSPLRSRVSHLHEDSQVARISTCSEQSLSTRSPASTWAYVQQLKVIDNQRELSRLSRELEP

type I PKA holoenzyme = assay: Counter screening assay, type I PKA holoenzyme kinase activity; type: biochemical; conditions: 25 µM compound, 0.1 mM cAMP
type II PKA holoenzyme = assay: Counter screening assay, type II PKA holoenzyme kinase activity; type: biochemical; conditions: 25 µM compound, 0.1 mM cAMP
EPAC1 [3] = target: T2, EPAC1; conditions: cAMP-mediated EPAC1 GEF activity; ref 18b; cited from earlier work
EPAC2 [4] = target: T1, EPAC2; assay: 8-NBD-cAMP competition binding assay; conditions: for Relative Potency (RA): RA = IC50, cAMP/ IC50, compound
HEK293/EPAC1-FL = target: T3, HEK293/EPAC1-FL (Homo sapiens, UniProt O95398); assay: FRET-based live-cell assay for EPAC1 activation; conditions: 10 µM 20i, 10 µM 007-AM
T3 sequence (O95398 1-923): T2 sequence (O95398 1-923)

[5] = system: HEK293 cells stably expressing the PKA sensor AKAR3; assay: FRET-based live-cell assay for PKA; conditions: 10 µM 20i, 10 µM 8-Br-cAMP-AM
HEK293/EPAC2-FL cells = HEK293/EPAC2-FL cells (Homo sapiens, UniProt Q8WZA2); assay: FRET-based live-cell assay for EPAC2 activation; conditions: 10 µM 20i pretreatment, 10 µM 007-AM
Sequence of HEK293/EPAC2-FL cells (Q8WZA2 whole entry): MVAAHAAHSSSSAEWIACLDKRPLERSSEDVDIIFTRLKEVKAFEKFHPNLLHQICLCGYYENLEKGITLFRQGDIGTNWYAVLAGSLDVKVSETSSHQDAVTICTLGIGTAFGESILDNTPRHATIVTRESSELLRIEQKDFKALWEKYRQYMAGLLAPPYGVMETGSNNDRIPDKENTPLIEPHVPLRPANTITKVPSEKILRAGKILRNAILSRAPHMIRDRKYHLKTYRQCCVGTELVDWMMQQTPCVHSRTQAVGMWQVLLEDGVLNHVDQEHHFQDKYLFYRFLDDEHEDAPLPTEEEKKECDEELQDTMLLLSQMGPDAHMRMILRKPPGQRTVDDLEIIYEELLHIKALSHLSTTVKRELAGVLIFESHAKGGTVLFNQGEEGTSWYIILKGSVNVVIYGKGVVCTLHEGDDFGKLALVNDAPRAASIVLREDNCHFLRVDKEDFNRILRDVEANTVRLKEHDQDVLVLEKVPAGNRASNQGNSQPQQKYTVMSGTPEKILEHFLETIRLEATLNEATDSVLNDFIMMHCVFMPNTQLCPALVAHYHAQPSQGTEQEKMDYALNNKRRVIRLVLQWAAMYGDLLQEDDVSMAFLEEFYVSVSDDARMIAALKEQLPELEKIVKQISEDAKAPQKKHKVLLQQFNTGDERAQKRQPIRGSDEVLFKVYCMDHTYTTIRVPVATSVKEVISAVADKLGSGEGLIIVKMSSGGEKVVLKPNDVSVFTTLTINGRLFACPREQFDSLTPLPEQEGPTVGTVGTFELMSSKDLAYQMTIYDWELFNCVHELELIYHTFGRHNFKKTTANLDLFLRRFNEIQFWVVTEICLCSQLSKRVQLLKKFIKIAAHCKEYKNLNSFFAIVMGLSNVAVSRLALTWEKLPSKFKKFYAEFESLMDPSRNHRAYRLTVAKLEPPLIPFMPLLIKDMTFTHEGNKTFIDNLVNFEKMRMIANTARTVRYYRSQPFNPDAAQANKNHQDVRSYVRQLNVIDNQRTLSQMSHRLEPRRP

Compound | Inhibition of EPAC2 GEF activity (EPAC2 [1]) | Inhibition of EPAC1-mediated Rap1-GDP exchange activity (EPAC1 [2]) | Effect on cAMP-induced type I PKA holoenzyme activation (type I PKA holoenzyme) | Effect on cAMP-induced type II PKA holoenzyme activation (type II PKA holoenzyme) | Selectivity EPAC2 vs EPAC1 of HTS hits (EPAC1 [3]) | Relative Potency (RA) (EPAC2 [4]) | fold more potent than cAMP (EPAC2 [4]; 8-NBD-cAMP competition in binding EPAC2) | Block of 007-AM induced decrease of FRET (EPAC1 activation) (HEK293/EPAC1-FL) | Inhibition of 8-Br-cAMP-AM induced PKA activation (AKAR3 FRET) [5] | Block of 007-AM induced decrease of FRET (EPAC2 activation) (HEK293/EPAC2-FL cells)
Cc1ccc(S(=O)(=O)c2c(C)cc(C)cc2C)cc1 [Compound 1] | inhibit EPAC2 GEF activity to basal levels | no inhibition; also recorded: not to inhibit | not to significantly alter | not to significantly alter | – | – | – | – | – | –
Nc1ccc(Nc2ccc(N)cc2S(=O)(=O)O)cc1 [Compound 2] | – | – | – | – | not exclusively specific for EPAC2 | 2.2 | – | – | – | –
Cc1cc(C)c(Nc2cc(Cl)ccc2Cl)c(C)c1 [Compound 14c, (2,5-Dichlorophenyl)-(2,4,6-trimethylphenyl)amine] | inhibit EPAC2 GEF activity to basal levels | no inhibition; also recorded: not to inhibit | not to significantly alter | not to significantly alter | – | 100 | about 100 fold | – | – | –
Cc1cc(C)c(S(=O)(=O)n2cc(C)cc2C)c(C)c1 [Compound 20i, 2,4-Dimethyl-1-(2,4,6-trimethylbenzenesulfonyl)-1H-pyrrole] | inhibit EPAC2 GEF activity to basal levels | no inhibition; also recorded: not to inhibit | not to significantly alter | not to significantly alter | – | – | – | incapable of blocking; also recorded: not EPAC1 activation | not inhibited; also recorded: did not affect PKA activation | fully blocked; also recorded: blocked EPAC2
